pIC50: −log10 of the molar value.
Columns and labels:
[1] = tested on: LC-2/ad (CCDCl6-RET) cells; assay: Cell proliferation assay (MTS), LC-2/ad cells; format: cell-based; details: Homo sapiens, LC-2-ad, 72 h, LC-2/ad cells (CCDCl6-RET), 72 h incubation, MTS readout
Description: (§1) MTS testing kit was purchased from Promega. The RPMI-1640, F12, F12K, Fetal bovine serum and Penicillin-Streptomycin were purchased from BI. Glutamine and Dimethyl sulfoxide (DMSO) were purchased from Sigma. TT cells were cultured in F12K supplemented with 10% FBS and LC-2/ad cells were cultured in HamF12: RPMI1640 (1:1) supplemented with 10% FBS and 2 mM Glutamine.
(§2) To investigate whether a compound is able to inhibit the activity of RET fusion and/or mutation in cells, a mechanism-based assay using TT (RET C634W) and LC-2/ad (CCDCl6-RET) cell lines was developed. In this assay, the inhibition of RET fusion and/or mutation was reflected by the inhibition of cell proliferation of TT and LC-2/ad cells. Cells were plated into 96-well plates at the optimized cell density (TT: 5000 cells/well; LC-2/ad: 5000 cells/well). Plates were incubated at 37° C., with 5% CO2 for 24 h. Compounds were serially diluted and added to the plates with the final concentrations as 10000, 3333.3, 1111.1, […], 123.5, 41.2, 13.7, 4.6 and 1.5 nM. Plates were incubated at 37° C., with 5% CO2 for 72 h. An aliquot of 20 μL MTS/100 μL medium mixture solution were added to each well and the plates were incubated for exactly 2 h. The reaction was stopped by adding 25 μL 10% SDS to each well. The absorbance was measured by a microplate reader at 490 nm and 650 nm (reference wavelength). IC50 was calculated using GraphPad Prism 5.0.

[2] = tested on: TT (RET C634W) cells; assay: Cell proliferation assay (MTS), TT cells; format: cell-based; details: Homo sapiens, TT, 72 h, 72 h incubation, MTS readout
Description: as §1, §2

COc1ccc(C(=O)N2CCN(c3ccc(-c4cc(-c5cnn(C)c5)cc5ncc(C#N)n45)cn3)CC2)cn1 [Example 2, 5-(6-(4-(6-Methoxynicotinoyl)piperazin-1-yl)pyridin-3-yl)-7-(1-methyl-1H-pyrazol-4-yl)imidazo[1,2-a]pyridine-3-carbonitrile]
pIC50 [1]: 7.27 | pIC50 [2]: 7.20

Cc1cccc(CN2CCN(c3ccc(-c4cc(-c5cnn(C)c5)cc5ncc(C#N)n45)cn3)CC2)n1 [Example 5, 7-(1-methyl-1H-pyrazol-4-yl)-5-(6-(4-((6-methylpyridin-2-yl)methyl)pi-perazin-1-yl)pyridin-3-yl)imidazo[1,2-a]pyridine-3-carbonitrile]
pIC50 [1]: 7.10 | pIC50 [2]: 7.15

COc1ccc(CN2CCN(c3ccc(-c4cc(-c5cnn(C)c5)cc5ncc(C#N)n45)cn3)CC2)cn1 [Example 6, 5-(6-(4-((6-methoxypyridin-3-yl)meth-yl)piperazin-1-yl)pyridin-3-yl)-7-(1-methyl-1H-pyrazol-4-yl)imidazo[1,2-a]pyridine-3-carbonitrile]
pIC50 [1]: 7.36 | pIC50 [2]: 7.38

Cn1cc(-c2cc(-c3ccc(N4CCN(C(=O)[C@H](O)c5ccccc5)CC4)nc3)n3c(C#N)cnc3c2)cn1 [Example 7, (R)-5-(6-(4-(2-hydroxy-2-phenylace-tyl)piperazin-1-yl)pyridin-3-yl)-7-(1-methyl-1H-pyrazol-4-yl)imidazo[1,2-a]pyridine-3-carbonitrile]
pIC50 [1]: 7.80 | pIC50 [2]: 7.96

CO[C@@H](C(=O)N1CCN(c2ccc(-c3cc(-c4cnn(C)c4)cc4ncc(C#N)n34)cn2)CC1)c1ccccc1 [Example 14, (R)-5-(6-(4-(2-methoxy-2-phenylace-tyl)piperazin-1-yl)pyridin-3-yl)-7-(1-methyl-1H-pyrazol-4-yl)imidazo[1,2-a]pyridine-3-carbonitrile]
pIC50 [1]: 7.89 | pIC50 [2]: 8.22

CC(C)[C@@H](O)C(=O)N1CCN(c2ccc(-c3cc(-c4cnn(C)c4)cc4ncc(C#N)n34)cn2)CC1 [Example 17, (R)-5-(6-(4-(2-hydroxy-3-methylbuta-noyl)piperazin-1-yl)pyridin-3-yl)-7-(1-methyl-1H-pyrazol-4-yl)imidazo [1,2-a]pyridine-3-carbonitrile]
pIC50 [1]: 7.35 | pIC50 [2]: 7.32

Cn1cc(-c2cc(-c3ccc(N4CCC(Oc5ccccn5)CC4)nc3)n3c(C#N)cnc3c2)cn1 [Example 18, 7-(1-methyl-1H-pyrazol-4-yl)-5-(6-(4-(pyridin-2-yloxy)piperidin-1-yl)pyr-idin-3-yl)imidazo[1,2-a]pyridine-3-carbonitrile]
pIC50 [1]: 8.70 | pIC50 [2]: 9.00

N#Cc1cnc2cc(OCC3(O)CC3)cc(-c3ccc(N4CCC(Oc5ccc(C6CC6)nc5)CC4)nc3)n12 [Example 76, 5-(6-(4-((6-cyclopropylpyridin-3-yl)oxy)piperidin-1-yl)pyridin-3-yl)-7-((1-hydroxy-cyclopropyl)methoxy)imidazo[1,2-a]pyr-idine-3-carbonitrile]
pIC50 [2]: 8.30

CC(C)(O)COc1cc(-c2ccc(N3CCC(Oc4ccc(C(F)F)nc4)CC3)nc2)n2c(C#N)cnc2c1 [Example 77, 5-(6-(4-((6-(difluoromethyl)pyridin-3-yl)oxy)piperidin-1-yl)pyridin-3-yl)-7-(2-hy-droxy-2-methylpropoxy)imidazo[1,2-a]pyr-idine-3-carbonitrile]
pIC50 [2]: 7.32

N#Cc1cnc2cc(OCC3(O)CC3)cc(-c3ccc(N4CCC(Oc5ccc(C(F)F)nc5)CC4)nc3)n12 [Example 78, 5-(6-(4-((6-(difluoromethyl)pyridin-3-yl)oxy)piperidin-1-yl)pyridin-3-yl)-7-((1-hy-droxycyclopropyl)methoxy)imidazo[1,2-a]pyridine-3-carbonitrile]
pIC50 [2]: 7.89

CCOc1ccc(OC2CCN(c3ccc(-c4cc(OCC5(O)CC5)cc5ncc(C#N)n45)cn3)CC2)cn1 [Example 79, 5-(6-(4-((6-ethoxypyridin-3-yl)oxy)piperi-din-1-yl)pyridin-3-yl)-7-((1-hydroxycyclo-propyl)methoxy)imidazo[1,2-a]pyridine-3-carbonitrile]
pIC50 [2]: 9.00

C#Cc1ccc(OC2CCN(c3ccc(-c4cc(OCC(C)(C)O)cc5ncc(C#N)n45)cn3)CC2)cn1 [Example 80, 5-(6-(4-((6-ethynylpyridin-3-yl)oxy)piper-idin-1-yl)pyridin-3-yl)-7-(2-hydroxy-2-methylpropoxy)imidazo[1,2-a]pyridine-3-carbonitrile]
pIC50 [2]: 8.15

C#Cc1ccc(OC2CCN(c3ccc(-c4cc(OCC5(O)CC5)cc5ncc(C#N)n45)cn3)CC2)cn1 [Example 81, 5-(6-(4-((6-ethynylpyridin-3-yl)oxy)piper-idin-1-yl)pyridin-3-yl)-7-((1-hydroxycyclo-propyl)methoxy)imidazo-[1,2-a]pyridine-3-carbonitrile]
pIC50 [2]: 8.30

C=Cc1ccc(OC2CCN(c3ccc(-c4cc(OCC(C)(C)O)cc5ncc(C#N)n45)cn3)CC2)cn1 [Example 82, 7-(2-hydroxy-2-methylpropoxy)-5-(6-(4-((6-vinylpyridin-3-yl)oxy)piperidin-1-yl)pyridin-3-yl)imidazo[1,2-a]pyridine-3-car-bonitrile]
pIC50 [2]: 7.82

C=Cc1ccc(OC2CCN(c3ccc(-c4cc(OCC5(O)CC5)cc5ncc(C#N)n45)cn3)CC2)cn1 [Example 83, 7-((1-hydroxycyclopropyl)methoxy)-5-(6-(4-((6-vinylpyridin-3-yl)oxy)piperidin-1-yl)pyridin-3-yl)imidazo[1,2-a]pyridine-3-carbonitrile]
pIC50 [2]: 7.77

CC(C)(O)COc1cc(-c2ccc(N3CCC(Oc4ccc(OC5CC5)nc4)CC3)nc2)n2c(C#N)cnc2c1 [Example 84, 5-(6-(4-((6-cyclopropoxypyridin-3-yl)oxy)piperidin-1-yl)pyridin-3-yl)-7-(2-hydroxy-2-methylpropoxy)imidazo[1,2-a]pyri-dine-3-carbonitrile]
pIC50 [2]: 7.68

N#Cc1cnc2cc(OCC3(O)CC3)cc(-c3ccc(N4CCC(Oc5ccc(OC6CC6)nc5)CC4)nc3)n12 [Example 85, 5-(6-(4-((6-cyclopropoxypyridin-3-yl)oxy)piperidin-1-yl)pyridin-3-yl)-7-((1-hy-droxycyclopropyl)methoxy)imidazo[1,2-a] pyridine-3-carbonitrile]
pIC50 [2]: 7.92

COc1ncc(OC2CCN(c3ccc(-c4cc(OCC5(O)CC5)cc5ncc(C#N)n45)cn3)CC2)cc1F [Example 87, 5-(6-(4-((5-fluoro-6-methoxypyridin-3-yl)oxy)piperidin-1-yl)pyridin-3-yl)-7-((1-hydroxycyclopropyl)methoxy)imidazo[1,2-a]pyridine-3-carbonitrile]
pIC50 [2]: 7.42

CCOc1ccc(OC2CCN(c3ccc(-c4cc(OCC(C)(C)O)cc5ncc(C#N)n45)cn3)CC2)cn1 [Example 88, 5-(6-(4-((6-ethoxypyridin-3-yl)oxy)piperi-din-1-yl)pyridin-3-yl)-7-(2-hydroxy-2-meth-ylpropoxy)imidazo[1,2-a]pyridine-3-car-bonitrile]
pIC50 [2]: 8.70

COc1ccc(O[C@H]2CCN(c3ccc(-c4cc(OCC(C)(C)O)cc5ncc(C#N)n45)cn3)C2)cn1 [Example 89, (S)-7-(2-hydroxy-2-methylpropoxy)-5-(6-(3-((6-methoxypyridin-3-yl)oxy)pyrrolidin-1-yl)pyridin-3-yl)imidazo[1,2-a]pyridine-3-carbonitrile]
pIC50 [2]: 7.35

COc1ccc(O[C@H]2CCN(c3ccc(-c4cc(OCC5(O)CC5)cc5ncc(C#N)n45)cn3)C2)cn1 [Example 90, (S)-7-((1-hydroxycyclopropyl)methoxy)-5-(6-(3-((6-methoxypyridin-3-yl)oxy)pyr-rolidin-1-yl)pyridin-3-yl)imidazo[1,2-a] pyridine-3-carbonitrile]
pIC50 [2]: 7.89

COc1ccc(OC2CN(c3ccc(-c4cc(OCC5(O)CC5)cc5ncc(C#N)n45)cn3)C2)cn1 [Example 92, 7-((1-hydroxycyclopropyl)methoxy)-5-(6-(3-((6-methoxypyridin-3-yl)oxy)azetidin-1-yl)pyridin-3-yl)imidazo[1,2-a]pyridine-3-carbonitrile]
pIC50 [2]: 7.06

COc1ccc(OC2CN(c3ccc(-c4cc(OCC(C)(C)O)cc5ncc(C#N)n45)cn3)C2)cn1 [Example 93, 7-(2-hydroxy-2-methylpropoxy)-5-(6-(3-((6-methoxypyridin-3-yl)oxy)azetidin-1-yl)pyridin-3-yl)imidazo[1,2-a]pyridine-3-carbonitrile]
pIC50 [2]: 7.41

COc1ccc(O[C@@H]2CCN(c3ccc(-c4cc(OCC(C)(C)O)cc5ncc(C#N)n45)cn3)C2)cn1 [Example 95, (R)-7-(2-hydroxy-2-methylpropoxy)-5-(6-(3-((6-methoxypyridin-3-yl)oxy)pyrrolidin-1-yl)pyridin-3-yl)imidazo[1,2-a]pyridine-3-carbonitrile]
pIC50 [2]: 8.15

COc1ccc(O[C@@H]2CCN(c3ccc(-c4cc(OCC5(O)CC5)cc5ncc(C#N)n45)cn3)C2)cn1 [Example 96, (R)-7-((1-hydroxycyclopropyl)methoxy)-5-(6-(3-((6-methoxypyridin-3-yl)oxy)pyr-rolidin-1-yl)pyridin-3-yl)imidazo[1,2-a] pyridine-3-carbonitrile]
pIC50 [2]: 8.05

— patent US20220041588A1, “SUBSTITUTED IMIDAZO[1,2-A]PYRIDINE AND [1,2,4]TRIAZOLO[1,5-A]PYRIDINE COMPOUNDS AS RET KINASE INHIBITORS” (FOCHON PHARMACEUTICALS, LTD., priority 2018, published 2022)
